Like-named read-outs stand apart in the source and are kept apart here.
Tests used:
Assay type in all cases: cell-based
SK-MEL-28 = assay: SRB colorimetric cell growth inhibition assay, SK-MEL-28; conditions: Homo sapiens; for GI50: SK-MEL-28, MEL-28, GI=growth inhibition, read-out: GI50 MEL-28; for CC50: SK-MEL-28, read-out: LC50 MEL-28, MEL-28, LC=cell killing (cytotoxic effect); for IC (TGI): SK-MEL-28, MEL-28, TGI=total growth inhibition (cytostatic effect), read-out: TGI MEL-28
Summary of the method: (§1)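 After uninterrupted treatment, cultures are fixed and stained with sulforhodamine B, and absorbance reflects cell growth and viability. Each value represents the average of triplicate wells with SD.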

K-562 = assay: SRB colorimetric cell growth inhibition assay, K-562; conditions: Homo sapiens; for GI50 / IC (TGI): K562, K-562; for GI50: GI=growth inhibition, read-out: GI50 K-562; for IC (TGI): TGI=total growth inhibition (cytostatic effect), read-out: TGI K-562; for CC50: K562, read-out: LC50 K-562, K-562, LC=cell killing (cytotoxic effect)
Summary of the method: as §1

IGROV-ET = assay: SRB colorimetric cell growth inhibition assay, IGROV-ET (ET-743 resistant); conditions: Homo sapiens; for GI50 / IC (TGI): IGROV-ET; for GI50: GI=growth inhibition, read-out: GI50 IGROV-ET; for IC (TGI): TGI=total growth inhibition (cytostatic effect), read-out: TGI IGROV-ET; for CC50: read-out: LC50 IGROV-ET, IGROV-ET, LC=cell killing (cytotoxic effect)
Summary of the method: as §1

IGROV = assay: SRB colorimetric cell growth inhibition assay, IGROV
Summary of the method: as §1

LoVo-Dox = assay: SRB colorimetric cell growth inhibition assay, LoVo-Dox (MDR)
Summary of the method: as §1

DU-145 = assay: SRB colorimetric cell growth inhibition assay, DU-145; conditions: Homo sapiens; for CC50: DU-145, read-out: LC50 DU-145, DU-145, LC=cell killing (cytotoxic effect); for GI50: GI=growth inhibition, read-out: GI50 DU-145; for IC (TGI): TGI=total growth inhibition (cytostatic effect), read-out: TGI DU-145
Summary of the method: as §1

PANC-1 = assay: SRB colorimetric cell growth inhibition assay, PANC-1; conditions: Homo sapiens; for IC (TGI): TGI=total growth inhibition (cytostatic effect), read-out: TGI PANC-1; for CC50: PANC-1, read-out: LC50 PANC-1, PANC-1, LC=cell killing (cytotoxic effect); for GI50: GI=growth inhibition, read-out: GI50 PANC-1
Summary of the method: as §1

A-549 = assay: SRB colorimetric cell growth inhibition assay, A-549; conditions: Homo sapiens; for GI50 / IC (TGI): A549, A-549; for GI50: GI=growth inhibition, read-out: GI50 A-549; for IC (TGI): TGI=total growth inhibition (cytostatic effect), read-out: TGI A-549; for CC50: A549, read-out: LC50 A-549, A-549, LC=cell killing (cytotoxic effect)
Summary of the method: as §1

SK-BR-3 = assay: SRB colorimetric cell growth inhibition assay, SK-BR-3; conditions: Homo sapiens; for CC50: SK-BR-3, read-out: LC50 SK-BR-3, SK-BR-3, LC=cell killing (cytotoxic effect); for GI50: GI=growth inhibition, read-out: GI50 SK-BR-3; for IC (TGI): TGI=total growth inhibition (cytostatic effect), read-out: TGI SK-BR-3
Summary of the method: as §1

SKOV-3 = assay: SRB colorimetric cell growth inhibition assay, SKOV-3; conditions: Homo sapiens; for CC50: SK-OV-3, read-out: LC50 SKOV-3; for IC (TGI): TGI=total growth inhibition (cytostatic effect)
From the text: Inhibition of Cell Growth by Colorimetric Assay.
A colorimetric type of assay, using sulforhodamine B (SRB) reaction has been adapted for a quantitative measurement of cell growth and viability (following the technique described by P. A. Skehan, et al., J. Natl. Cancer Inst. 1990, 82, 1107-1112).
This form of assay employs 96 well cell culture microplates of 9 mm diameter (T. Mosmann et al., J. of Immunological Methods 1983, 65, 55-63; G. T. Faircloth et al., J. of Tissue and Culture Methods 1988, 11, 201-205).
Most of the cell lines are obtained from American Type Culture Collection (ATCC) derived from different human cancer types.
The values for mean +/− SD of data from triplicate wells are calculated. Some parameters for cellular responses can be calculated: GI=growth inhibition, TGI=total growth inhibition (cytostatic effect) and LC=cell killing (cytotoxic effect).

HT-29 = assay: SRB colorimetric cell growth inhibition assay, HT-29; conditions: Homo sapiens; for CC50: HT-29, read-out: LC50 HT-29, HT-29, LC=cell killing (cytotoxic effect); for GI50 / IC (TGI): HT-29; for GI50: GI=growth inhibition, read-out: GI50 HT-29; for IC (TGI): TGI=total growth inhibition (cytostatic effect), read-out: TGI HT-29
Summary of the method: as §1

LoVo = assay: SRB colorimetric cell growth inhibition assay, LoVo; conditions: Homo sapiens; for CC50: read-out: LC50 LOVO, LOVO, LC=cell killing (cytotoxic effect); for GI50: GI=growth inhibition, read-out: GI50 LOVO; for IC (TGI): TGI=total growth inhibition (cytostatic effect), read-out: TGI LOVO
Summary of the method: as §1

[1] = Homo sapiens, IGROV, read-out: LC50 IGROV, IGROV; LC=cell killing (cytotoxic effect)
[2] = Homo sapiens, LOVO-DOX; GI=growth inhibition; read-out: GI50 LOVO-DOX
[3] = Homo sapiens, read-out: LC50 LOVO-DOX, LOVO-DOX; LC=cell killing (cytotoxic effect)

Row | SMILES | GI50 (SK-MEL-28) [µM] | CC50 (SK-MEL-28) [µM] | IC (TGI) (SK-MEL-28) [µM] | GI50 (K-562) [µM] | IC (TGI) (K-562) [µM] | CC50 (K-562) [µM] | GI50 (IGROV-ET) [µM] | IC (TGI) (IGROV-ET) [µM] | CC50 (IGROV-ET) [µM] | CC50 (IGROV; [1]) [µM] | GI50 (LoVo-Dox; [2]) [µM] | CC50 (LoVo-Dox; [3]) [µM] | CC50 (DU-145) [µM] | IC (TGI) (PANC-1; PANC-1, PANC-1) [µM] | CC50 (PANC-1) [µM] | GI50 (A-549) [µM] | IC (TGI) (A-549) [µM] | CC50 (A-549) [µM] | CC50 (SK-BR-3) [µM] | CC50 (SKOV-3) [µM] | also measured
1 | COc1cc(-c2c3c4cc(OC)c(OC(=O)[C@@H](N)CCCCNC(=O)OCc5ccccc5)cc4oc(=O)c3n3ccc4c(OC(=O)[C@@H](N)CCCCNC(=O)OCc5ccccc5)c(OC)c(OC)cc4c23)ccc1OC(=O)[C@@H](N)CCCCNC(=O)OCc1ccccc1 [Compound 44] | 0.48 | 7.6 | 3.21 | 0.182 | 0.686 | 5.36 | 1.18 | 3.58 | 7.6 | 5.06 | 0.608 | 7.6 | 7.6 | 4.35 | 7.6 | 5.44 | 7.6 | 7.6 | 7.6 | 7.6 | GI50 (IGROV; Homo sapiens; IGROV; GI=growth inhibition; read-out: GI50 IGROV): 1.06 µM; IC (TGI) (IGROV; Homo sapiens; IGROV; TGI=total growth inhibition (cytostatic effect); read-out: TGI IGROV): 2.32 µM; IC (TGI) (LoVo-Dox; Homo sapiens; LOVO-DOX; TGI=total growth inhibition (cytostatic effect); read-out: TGI LOVO-DOX): 2.51 µM; GI50 (DU-145; DU-145): 0.0485 µM; IC (TGI) (DU-145; DU-145): 0.273 µM; GI50 (PANC-1; PANC-1): 1.17 µM; GI50 (SK-BR-3; SK-BR-3): 0.122 µM; IC (TGI) (SK-BR-3; SK-BR-3): 0.866 µM; GI50 (SKOV-3; SK-OV-3, read-out: GI50 SKOV-3): 0.0988 µM; IC (TGI) (SKOV-3; SK-OV-3, read-out: TGI SKOV-3, SKOV-3): 1.15 µM; CC50 (HT-29): 7.6 µM; GI50 (HT-29): 7.6 µM; IC (TGI) (HT-29): 7.6 µM; CC50 (LoVo; LoVo): 7.6 µM; GI50 (LoVo; LOVO): 0.374 µM; IC (TGI) (LoVo; LOVO): 3.18 µM
2 | COc1cc(-c2c3c4cc(OC)c(OC(=O)[C@H](N)C(C)C)cc4oc(=O)c3n3ccc4c(OC(=O)[C@H](N)C(C)C)c(OC)c(OC)cc4c23)ccc1OC(=O)[C@H](N)C(C)C [Compound 43] | 0.498 | 12.1 | 12.1 | 0.118 | 0.565 | 12.1 | 0.098 | 3.24 | 12.1 | 8.94 | 0.937 | 9.84 | 12.1 | 6.57 | 12.1 | 1.9 | 12.1 | 12.1 | 7.9 | 12.1 | GI50 (IGROV; Homo sapiens, IGROV; GI=growth inhibition; read-out: GI50 IGROV): 0.418 µM; IC (TGI) (IGROV; Homo sapiens, IGROV; TGI=total growth inhibition (cytostatic effect); read-out: TGI IGROV): 2.14 µM; IC (TGI) (LoVo-Dox; Homo sapiens, LOVO-DOX; TGI=total growth inhibition (cytostatic effect); read-out: TGI LOVO-DOX): 3.14 µM; GI50 (DU-145; DU-145, DU-145): 0.0574 µM; IC (TGI) (DU-145; DU-145, DU-145): 0.301 µM; GI50 (PANC-1; PANC-1, PANC-1): 1.49 µM; GI50 (SK-BR-3; SK-BR-3, SK-BR-3): 0.212 µM; IC (TGI) (SK-BR-3; SK-BR-3, SK-BR-3): 1.1 µM; GI50 (SKOV-3; SK-OV-3, SKOV-3, GI=growth inhibition, read-out: GI50 SKOV-3): 0.146 µM; IC (TGI) (SKOV-3; SK-OV-3, SKOV-3, read-out: TGI SKOV-3): 1.14 µM; CC50 (HT-29): 12.1 µM; GI50 (HT-29): 12.1 µM; IC (TGI) (HT-29): 12.1 µM; CC50 (LoVo; LoVo): 12.1 µM; GI50 (LoVo; LoVo): 0.635 µM; IC (TGI) (LoVo; LoVo): 3.72 µM

From patent US7396837B2, “Antitumoral analogs of lamellarins” (Pharma Mar, S.A.U., priority 2002, dated 2008)
